Experimental data taken from patent publication US20250188062A1, “TRIAZINE COMPOUNDS AND METHODS OF MAKING AND USING THE SAME” (Athos Therapeutics, Inc., priority 2021, published 2025).

Experiments:
[1] = biological target: JMJD3 (Homo sapiens, UniProt O15054); assay: JMJD3 binding assay (Kd, affinity beads, qPCR readout); conditions: 11-point 3-fold dilution series, 0.9% DMSO, room temperature 1 hour; read-out: JMJD3 Affinity (binding constant, Kd)
Method: Test compounds were prepared as 111X stocks in 100% DMSO. Kd values are determined using an 11-point 3-fold compound dilution series with three DMSO control points. All compounds for Kd measurements were distributed by acoustic transfer (non-contact dispensing) in 100% DMSO. The compounds were then diluted directly into the assays such that the final concentration of DMSO was 0.9%. All reactions were performed in polypropylene 384-well plate. Each was a final volume of 0.02 ml. The assay plates were incubated at room temperature with shaking for 1 hour and the affinity beads were washed with wash buffer (lx PBS, 0.05% Tween 20). The beads were then re-suspended in elution buffer (lx PBS, 0.05% Tween 20, 0.5 μM non-biotinylated affinity ligand) and incubated at room temperature with shaking for 30 minutes. The kinase concentration in the eluates was measured by qPCR. Binding constants are calculated with a standard dose-response curve using the Hill equation:
The Hill Slope was set to −1. Curves were fitted using a non-linear least square fit with the Levenberg-Marquardt algorithm. The binding data is summarized in Table 2 where A is less than 100 nM, B is 100 to 500 nM, and C is greater than 500 nM.

[2] = tested on: THP-1 human monocytes; assay: Cellular assay for anti-inflammatory properties: cytokine ELISA multiplex in LPS-stimulated PMA-differentiated THP-1 macrophages; format: cell-based; conditions: 1 μM, 4 hours before 100 ng/mL LPS for 4 or 24 hours; cytokine protein in media vs LPS+PMA only
Method: The anti-inflammatory properties of five JMJD3 inhibitors (99, 92, 93, 98, and 95, in no particularly order) were evaluated in an immune cellular assay targeting key pro-inflammatory cytokines involved in the pathogenesis of multiple autoimmune disease.
Specifically, THP-1 human monocytes were grown in 6-well plates (RPMI 1640+10% FBS+1% P/S). After washing with PBS the THP-1 cells were differentiated into macrophages using 20 nM of phorbol 12-myristate 13-acetate (PMA) for 24 hrs. 99, 92, 93, 98, and 95) (1 μM) were added into the macrophages, which are incubated for 4 hours before the addition of 100 ng/mL lipopolysaccharide (LPS) for either 4 or 24 hours. Next, the macrophages are collected via centrifugation at 1.2K rpm for 5 min and use their media to evaluate cytokine protein levels by using the Bio-rad Cytokine ELISA multiplex assay (cat. No M5000031YV). The supernatants from macrophages treated only with only LPS+PMA were collected and used as negative controls.

[3] = tested on: Naïve CD4+ T human cells; assay: Cellular assay for FoxP3 induction activity (qPCR of FoxP3 mRNA); format: cell-based; conditions: CD4+ T cells activated with anti-CD3, IL-2 and TGF-β for 5 days; FoxP3 mRNA by qPCR on day 5; FIG. 3
Method: CD4+CD25+FOXP3+ regulatory T cells (Tregs) suppress pro-inflammatory cells and signals and are critical mediators of tolerance, inhibiting excessive inflammation and autoimmunity. Also, treatment of CD4+ T cells with interleukin 2 (IL-2) and transforming growth factor beta (TGF-β) signaling are important for FOXP3 induction and Treg formation.
Naïve CD4+ T human cells (cat. no 2W-200, Lonza) were cultured and activated with artificial antigen-presenting cells and soluble anti-CD3 (100 ng/ml) in the presence of IL-2 (300 U/ml) and TGF-β (10 ng/ml) for 5 days. On day 3, cells were transfected with an anti-sense RNA against JMJD3 (cat. No 1299001, Thermo) using Lipofectamine 2000 (cat. No 11668027, Thermo). On day 5, RNA was extracted and qPCR analysis was performed to evaluate FoxP3 mRNA levels by using the following primers: F: 5′-TCCACAACATGCGACCCCCTTTCA-3′ and R: 5′-ACAGCCCCCTTCTCGCTCTCCA-3′ having a 217 bp product. All JMJD3 inhibitors (99, 92, 93, 98, and 95) in CD4+ T cells induced 7-fold FoxP3 expression levels, thus moving towards differentiation and formation of Tregs. […] Thus, genetic or pharmacological inhibition of […] will result into FoxP3 activation and induction of Treg formation. Based on this evidence, JMJD3 inhibitors (99, 92, 93, 98, and 95)) could be used in autoimmune diseases where T-regulatory cells have therapeutic potential. There is increasing evidence and literature derived from human clinical studies (Arellano B et al., Regulatory T Cell-based Therapies for Autoimmunity, Discov Med, 22:73-80, 2016).

[4] = tested on: THP-1 human monocytes; assay: TNF-alpha ELISA (Quantikine) in LPS-treated THP-1 cells; format: cell-based; conditions: 1 μM, 4 hrs before LPS 50 ng/ml; PMA 25 nM; ELISA of supernatants; FIG. 4A-C, p<0.05 / p<0.01
Method: THP-1 cells were grown to confluence and plated in 6-well plates. PMA (25 nM) was added to the medium and replaced with non-PMA containing medium 24 hrs later. ATH compounds (1 μM) or vehicle (0.1% DMSO) were added and allowed to incubate. After 4 hrs LPS (50 ng/ml) was added without replacement of the medium and supernatants were collected after 4 and […]. Media were placed on ice for cytokine detection using ELISA (Quantikine, R&D Systems).
JMJD3 inhibitors Compound 89, Compound 91 (FIG. 4A, p<005), Compound 97, Compound 92, Compound 93 (FIG. 4B, p<0.01), and Compound 94 (FIG. 4C, p<0.01) show suppression of TNF-alpha (TNFA) expression after LPS (lipopolysaccharide) treatment, in THP-1 human monocytes (FIG. 4A-C, p<0.05 for both).

Chain of JMJD3 (O15054 whole entry, species assumed): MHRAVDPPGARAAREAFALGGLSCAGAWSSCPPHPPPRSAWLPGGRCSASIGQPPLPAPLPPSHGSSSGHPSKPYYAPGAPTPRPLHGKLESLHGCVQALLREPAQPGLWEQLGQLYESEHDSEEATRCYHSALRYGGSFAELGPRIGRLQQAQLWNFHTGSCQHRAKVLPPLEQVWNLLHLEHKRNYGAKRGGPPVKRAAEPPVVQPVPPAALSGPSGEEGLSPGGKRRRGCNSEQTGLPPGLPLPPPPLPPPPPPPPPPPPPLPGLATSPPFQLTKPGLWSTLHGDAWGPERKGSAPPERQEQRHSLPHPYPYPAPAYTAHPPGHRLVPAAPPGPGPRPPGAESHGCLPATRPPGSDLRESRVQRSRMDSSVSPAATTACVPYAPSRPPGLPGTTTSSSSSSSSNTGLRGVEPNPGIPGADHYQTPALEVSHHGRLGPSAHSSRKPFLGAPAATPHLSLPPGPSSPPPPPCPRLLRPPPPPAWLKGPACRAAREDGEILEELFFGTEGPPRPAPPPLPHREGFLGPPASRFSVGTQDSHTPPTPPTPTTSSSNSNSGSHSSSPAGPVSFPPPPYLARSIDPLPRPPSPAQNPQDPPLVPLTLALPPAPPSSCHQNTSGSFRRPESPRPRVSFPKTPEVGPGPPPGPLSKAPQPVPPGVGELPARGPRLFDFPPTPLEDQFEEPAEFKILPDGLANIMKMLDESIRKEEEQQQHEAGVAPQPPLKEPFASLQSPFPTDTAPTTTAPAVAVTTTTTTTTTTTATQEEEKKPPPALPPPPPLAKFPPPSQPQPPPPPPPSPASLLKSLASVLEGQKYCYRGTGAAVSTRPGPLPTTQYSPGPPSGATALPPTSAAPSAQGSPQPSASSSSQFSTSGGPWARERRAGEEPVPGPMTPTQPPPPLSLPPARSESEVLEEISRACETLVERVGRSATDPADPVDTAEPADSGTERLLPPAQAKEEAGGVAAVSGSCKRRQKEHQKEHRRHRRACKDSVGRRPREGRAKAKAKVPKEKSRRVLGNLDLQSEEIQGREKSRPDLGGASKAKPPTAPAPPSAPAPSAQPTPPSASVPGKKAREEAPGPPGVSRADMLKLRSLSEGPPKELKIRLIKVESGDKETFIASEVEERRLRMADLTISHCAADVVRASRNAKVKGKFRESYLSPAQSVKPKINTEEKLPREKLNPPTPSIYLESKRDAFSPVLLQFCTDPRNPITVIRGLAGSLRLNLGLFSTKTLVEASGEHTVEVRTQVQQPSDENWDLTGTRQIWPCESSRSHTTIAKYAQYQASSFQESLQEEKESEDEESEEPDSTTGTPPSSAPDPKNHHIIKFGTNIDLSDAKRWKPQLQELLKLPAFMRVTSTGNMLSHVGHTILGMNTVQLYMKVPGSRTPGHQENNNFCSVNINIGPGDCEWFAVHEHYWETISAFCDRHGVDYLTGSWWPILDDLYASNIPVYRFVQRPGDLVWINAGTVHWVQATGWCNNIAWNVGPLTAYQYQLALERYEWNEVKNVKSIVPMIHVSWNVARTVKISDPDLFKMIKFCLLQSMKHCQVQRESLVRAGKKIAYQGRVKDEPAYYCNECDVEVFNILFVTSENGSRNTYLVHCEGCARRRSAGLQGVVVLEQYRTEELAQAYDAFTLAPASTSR

c1ccc2c(c1)ccn2-c1nc(N2CCNC3(COC3)C2)nc(-n2cccn2)n1 [Compound 60, 8-(4-(1H-Indol-1-yl)-6-(1H-pyrazol-1-yl)-1,3,5-triazin-2-yl)-2-oxa-5,8-diazaspiro[3.5]nonane]
Kd [1]: < 100 nM

COCNc1nc(-n2cccn2)nc(-n2ccc3ccccc32)n1 [Compound 98, 4-(1H-indol-1-yl)-N-(methoxymethyl)-6-(1H-pyrazol-1-yl)-1,3,5-triazin-2-amine]
suppression of TNF-alpha (TNFA) [2]: suppression
suppression of interleukin 1beta (IL1B) [2]: suppression
suppression of interleukin 5 (IL5) [2]: suppression
suppression of interleukin 6 (IL6) [2]: suppression
suppression of interleukin 8 (IL8) [2]: suppression
suppression of interleukin 13 (IL13) [2]: suppression
FoxP3 expression levels (induction) [3]: 7 fold

CCOC(=O)CCNc1nc(-n2cccn2)nc(-n2cccn2)n1 [Compound 2, Ethyl 3-((4,6-di(1H-pyrazol-1-yl)-1,3,5-triazin-2-yl)amino)propanoate]
Kd [1]: 100 to 500 nM

NC(=O)CCNc1nc(-c2cc(F)cc(F)c2)nc(-n2cccn2)n1 [Compound 96, 3-((4-(3,5-Difluorophenyl)-6-(1H-pyrazol-1-yl)-1,3,5-triazin-2-yl)amino)propanamide]
Kd [1]: 100 to 500 nM

CCOC(=O)CCNc1nc(-n2cccn2)nc(-n2ccc3ccccc32)n1 [Compound 6, Ethyl 3-((4-(1H-indol-1-yl)-6-(1H-pyrazol-1-yl)-1,3,5-triazin-2-yl)amino)propanoate]
Kd [1]: < 100 nM

c1ccc2c(c1)ccn2-c1nc(N2CCOCC2)nc(-n2cccn2)n1 [Compound 94, 4-(4-(1H-Indol-1-yl)-6-(1H-pyrazol-1-yl)-1,3,5-triazin-2-yl)morpholine]
suppression of TNF-alpha (TNFA) expression after LPS treatment [4]: suppression
Kd [1]: 100 to 500 nM

COCCCNc1nc(-n2cccn2)nc(-n2ccc3ccccc32)n1 [Compound 97, 4-(1H-Indol-1-yl)-N-(3-methoxypropyl)-6-(1H-pyrazol-1-yl)-1,3,5-triazin-2-amine]
suppression of TNF-alpha (TNFA) expression after LPS treatment [4]: suppression
Kd [1]: 100 to 500 nM

NC(=O)CCNc1nc(-n2cccn2)nc(-n2ccc3ccccc32)n1 [Compound 91, 3-((4-(1H-Indol-1-yl)-6-(1H-pyrazol-1-yl)-1,3,5-triazin-2-yl)amino)propanamide]
suppression of TNF-alpha (TNFA) expression after LPS treatment [4]: suppression
Kd [1]: 100 to 500 nM

CCOC(=O)CCNc1nc(N2CCc3ccccc3CC2)nc(-n2cccn2)n1 [Compound 1, Ethyl 3-((4-(1H-pyrazol-1-yl)-6-(1,2,4,5-tetrahydro-3H-benzo[d]azepin-3-yl)-1,3,5-triazin-2-yl)amino)propanoate]
Kd [1]: < 100 nM

Fc1cc(F)cc(-c2nc(N3CCOCC3)nc(-n3cccn3)n2)c1 [Compound 92, 4-(4-(3,5-Difluorophenyl)-6-(1H-pyrazol-1-yl)-1,3,5-triazin-2-yl)morpholine]
suppression of TNF-alpha (TNFA) expression after LPS treatment [4]: suppression
suppression of TNF-alpha (TNFA) [2]: suppression
suppression of interleukin 1beta (IL1B) [2]: suppression
suppression of interleukin 5 (IL5) [2]: suppression
suppression of interleukin 6 (IL6) [2]: suppression
suppression of interleukin 8 (IL8) [2]: suppression
suppression of interleukin 13 (IL13) [2]: suppression
FoxP3 expression levels (induction) [3]: 7 fold
Kd [1]: 100 to 500 nM

COCCNc1nc(-n2cccn2)nc(-n2ccc3ccccc32)n1 [Compound 89, 4-(1H-indol-1-yl)-N-(2-methoxyethyl)-6-(1H-pyrazol-1-yl)-1,3,5-triazin-2-amine]
suppression of TNF-alpha (TNFA) expression after LPS treatment [4]: suppression
Kd [1]: < 100 nM

CCOC(=O)CCNc1nc(-c2cc(F)cc(F)c2)nc(-n2cccn2)n1 [Compound 8, Ethyl 3-((4-(3,5-difluorophenyl)-6-(1H-pyrazol-1-yl)-1,3,5-triazin-2-yl)amino)propanoate]
Kd [1]: < 100 nM

c1ccc2c(c1)ccn2-c1nc(N2CCNCC2)nc(-n2cccn2)n1 [Compound 90, 1-(4-(Piperazin-1-yl)-6-(1H-pyrazol-1-yl)-1,3,5-triazin-2-yl)-1H-indole]
Kd [1]: 100 to 500 nM

CN1CCN(c2nc(-c3cc(F)cc(F)c3)nc(-n3cccn3)n2)CC1 [Compound 80, 2-(3,5-Difluorophenyl)-4-(4-methylpiperazin-1-yl)-6-(1H-pyrazol-1-yl)-1,3,5-triazine]
Kd [1]: 100 to 500 nM

Fc1cc(F)cc(-c2nc(N3CCNCC3)nc(-n3cccn3)n2)c1 [Compound 99, 2-(3,5-difluorophenyl)-4-(piperazin-1-yl)-6-(1H-pyrazol-1-yl)-1,3,5-triazine]
suppression of TNF-alpha (TNFA) [2]: suppression
suppression of interleukin 1beta (IL1B) [2]: suppression
suppression of interleukin 5 (IL5) [2]: suppression
suppression of interleukin 6 (IL6) [2]: suppression
suppression of interleukin 8 (IL8) [2]: suppression
suppression of interleukin 13 (IL13) [2]: suppression
FoxP3 expression levels (induction) [3]: 7 fold

Fc1cc(F)cc(-c2nc(N3CCC3)nc(-n3cccn3)n2)c1 [Compound 93, 2-(Azetidin-1-yl)-4-(3,5-difluorophenyl)-6-(1H-pyrazol-1-yl)-1,3,5-triazine]
suppression of TNF-alpha (TNFA) expression after LPS treatment [4]: suppression
suppression of TNF-alpha (TNFA) [2]: suppression
suppression of interleukin 1beta (IL1B) [2]: suppression
suppression of interleukin 5 (IL5) [2]: suppression
suppression of interleukin 6 (IL6) [2]: suppression
suppression of interleukin 8 (IL8) [2]: suppression
suppression of interleukin 13 (IL13) [2]: suppression
FoxP3 expression levels (induction) [3]: 7 fold
Kd [1]: < 100 nM
